In patent publication US11202836B2, “PSMA targeted conjugate compounds and uses thereof” (CASE WESTERN RESERVE UNIVERSITY, priority 2018, dated 2021):
*1 amine or outer side, *2 acyl side, *3 side chain or, on linkers, in order; H or OH if unused. Where a SMILES comes first, the peptide text is derived from it. Bridges are numbered along the chain shown (N, C = ends). Roman numbers before positions name the chains, in order. [ ]: non-standard residue; d: D form. The star is where a group is joined. Hexanoyl(6-succinimido-3yl) = O=C1CC([*:1])C(=O)N1CCCCCC(=O)[*:2]; Dolaproine = CO[C@@H]([C@@H]1CCCN1)[C@@H](C)C(=O)O; Dil = CC[C@H](C)[C@H](NC)[C@@H](CC(=O)O)OC; γGlu = O=C(O)[C@H](CCC(=O)[*:2])N[*:1]; PABC = O=C(OCc1ccc(N[*:1])cc1)[*:2]; X4 = C[C@@H](N*)[C@@H](O)c1ccccc1; X1 = O=C(C1CCC(CN[*:1])CC1)[*:2]; Cit = NC(=O)NCCC[C@H](N)C(=O)O; NMeV = CN[C@H](C(=O)O)C(C)C; CO = O=C([*:1])[*:2]; Ahx = NCCCCCC(=O)O

Columns and labels:
[1] = In vitro cytotoxicity assay (CCK-8, 72 h), PSMA-positive cells; format: cell-based; conditions: 72 hours
Procedure: (§1) Cells (1,000/well) were seeded in 96-well culture plates the day before treatment. Cells were incubated with various concentrations of drugs for 72 hours and cell viability evaluated by CCK-8 (Dojindo). The concentration required to reach 50% of cell proliferation was determined (IC50) by GraphPad Prism 3.0.

PC3pip cells = assay: as above; format: cell-based
Procedure: as §1

[2] = In vitro cytotoxicity assay (CCK-8, 72 h), PSMA-negative cells; format: cell-based; conditions: 72 hours, CCK-8; read-out: IC50, cytotoxicity to PC3flu cells
Procedure: as §1

PC3flu cells = assay: as above; format: cell-based; conditions: relative to PSMA-1-VcMMAE-Cy5.5
Procedure: as §1

[3] = Maximum tolerated dose (single i.v. dose); format: in vivo, mice
From the text: Mice were monitored daily for 14 days.

[4] = tested on: heterotopic PC3pip tumors; assay: Heterotopic PC3pip tumor survival / antitumor study; format: in vivo
From the text: Male athymic nude mice were implanted subcutaneously with 1×10^6 of PC3pip cells under the right dorsum of the mice. When tumor size reached approximately 100 mm^3 (tumor volume=Length×width^2/2), mice received drugs through tail vein injection. […] Animals were weighed and tumor size measured every other day for 90 days. Cures were defined as no tumor present at end of the 90-day study. When tumors became too large or animals were moribund they were euthanized. Five mice were used in each group.

orthotopic PC3pip tumors = assay: Orthotopic PC3pip tumor survival study; format: in vivo, mice
Procedure: Surgical orthotopic tumor implantation was performed as previously reported. Tumor growth/size was monitored using Siemens Acuson […] ultrasound scanner. When the tumors were at the appropriate size (5 mm as measured by ultrasound, approximately 2 weeks) animals were given PSMA-1-VcMMAE, PSMA-1-VcMMAE-Cy5.5, or PBS every four days with a total of 5 doses. Tumors were monitored every other day by ultrasound. Each group had five mice.

metastatic PC3pip model = assay: Metastatic PC3pip survival study (intracardiac GFP-PC3pip); format: in vivo, mice; conditions: dose not stated
Procedure: Male athymic nude mice were injected into the left ventricle of the heart with 1×10^5 GFP labeled PC3pip cells to generate bone metastasis. One week later mice received 160 nmol/kg PSMA-1-VcMMAE-Cy5.5 or PBS every 4 days with a total of 5 doses and the progression of disease was monitored by GFP imaging. Five mice were used in each group.

[5] = 3820 nmol/kg every 4 days, 5 doses

CC[C@H](C)[C@@H]([C@@H](CC(=O)N1CCC[C@H]1[C@H](OC)[C@@H](C)C(=O)N[C@H](C)[C@@H](O)c1ccccc1)OC)N(C)C(=O)[C@@H](NC(=O)[C@H](C(C)C)N(C)C(=O)OCc1ccc(NC(=O)[C@H](CCCNC(N)=O)NC(=O)[C@@H](NC(=O)CCCCCN2C(=O)CC(SC[C@H](NC(=O)[C@H](CCC(=O)O)NC(=O)[C@H](CCC(=O)O)NC(=O)[C@H](CCC(=O)O)NC(=O)CCCCCNC(=O)C3CCC(CNC(=O)CC[C@H](NC(=O)N[C@@H](CCC(=O)O)C(=O)O)C(=O)O)CC3)C(=O)NCCCCCC(=O)N[C@@H](CCCCN)C(N)=O)C2=O)C(C)C)cc1)C(C)C (stereo partly shown) [PSMA-1-VcMMAE] (I: {Glu-CO-γGlu}-[X1][Ahx]EEEC[Ahx]K-NH2 / II: V[Cit][PABC][NMeV]V[Dil][Dolaproine]-X4; linker I:6-II:N via Hexanoyl(6-succinimido-3yl); C-terminus assumed)
IC50 ([1]; CCK-8, read-out: IC50, cytotoxicity to PC3pip cells): 4.64 nM
selectivity ratio ([1]; PC3flu IC50 over PC3pip IC50, read-out: selectivity, differential cytotoxicity PC3pip vs PC3flu cells): 48
potency to kill PC3pip cells in the presence of PSMA-1 ligand (PC3pip cells; 10 μM of PSMA-1): reduced to the same potency to kill PC3flu cells
ratio of IC50's between PC3pip and PC3flu cells (PC3pip cells; 72 hours): 48.2
effect of protease inhibitor E64 on cell killing potency (PC3pip cells; co-incubation with 50 μM E64): susceptible to E64 protease inhibition
increase of IC50 against PC3pip cells on removal of the Cy5.5 moiety (PC3pip cells; relative to PSMA-1-VcMMAE-Cy5.5): 6.2 fold
IC50 [2]: 222 nM
increase of IC50 against PC3flu cells on removal of the Cy5.5 moiety (PC3flu cells): 11.1 fold
MTD ([3]; mouse, in vivo, iv, single dose i.v., tumor-free athymic nude mice, 14 days): 7.64 µmol/kg
MTD relative to MMAE ([3]; single dose): more than 10 fold
inhibition of PC3pip tumor growth compared with PC3flu tumor growth ([4]; 955 nmol/kg): significantly more effective
animal survival [4, 5]: all 5 mice survived the 90-day experimental time
cure (tumor free at end of 90-day study) [4, 5]: 60%
tumor growth when given every 7 days ([4]; every 7 days, model not stated): greatly inhibited tumor growth
lowest dose effectively inhibiting tumor growth ([4]; mouse, in vivo): 191 nmol/kg
body weight loss ([4]; up to highest dose tested, 3820 nmol/kg): No body weight loss
tumor free mice (orthotopic PC3pip tumors; 3860 nmol/kg, five mice per group): 1 mouse
tumor growth and survival (orthotopic PC3pip tumors; every four days, 5 doses, significant at 1910 and 3860 nmol/kg): Inhibition of tumor growth and extension of animal survival time
survival and body weight (metastatic PC3pip model): prolong animal survival time with no body weight loss
